Experimental data reported in US12570666B2, “Furoindazole derivatives” (Bayer Aktiengesellschaft, priority 2019, dated 2026).

Each compound was assayed against T1, human GPR84 receptor (Homo sapiens, UniProt Q9NQS5) (assay: cAMP HTRF assay for identification of cellular GPR84 antagonists). Settings: CHO-K1 cells stably expressing human GPR84; Forskolin + agonist 6-OAU (EC80); average or median values.
T1 construct: frozen aliquots prepared by acCELLerate; host or cells: CHO-K1
Assay type: cell-based
From the text: cAMP HTRF® Assay for Identification of Cellular GPR84 Antagonists
By using a Homogenous Time-Resolved Fluorescence (HTRF®) based assay (#62AM5PEJ, Cisbio, Condolet, France) the inhibition of the Gi-coupled GPR84 receptor can be detected. CHO-K1 cells stably expressing human GPR84 receptor (purchased from DiscoveRx, now Eurofins) were used and treated with Forskolin (F6886, Sigma, Germany) to stimulate membrane adenylyl cyclases and thereby unspecific cAMP formation. Activation of the Gi-coupled GPR84 by a natural or small molecule agonist (e.g. 6-n-octyl aminouracile, inhouse) results in inhibition of cellular cAMP formation which can be released again by antagonists to this receptor. Detection and quantification of cellular cAMP levels in this HTRF assay is achieved by interaction between a fluorescent cAMP tracer (cAMP-d2) and an Eu-cryptate labelled anti-cAMP antibody. Following excitation at 337 nm this pairing allows for the generation of a fluorescence resonance energy transfer (FRET) between the partners and results in FRET induced emissions at 665 nm and 620 nm, the latter representing background signal by Eu-cryptate labelled anti-cAMP antibody. Maximal signal is obtained in the absence of any cellular cAMP (no competition for the binding of the tracer to the antibody). Given the combination of the Gi coupling properties of GPR84 and the competitive nature of the detection system agonist treatment should result in an increase in the HTRF signal due to lowered cAMP levels. Any signal decrease in the presence of Forskolin, agonist and compound is indicative of antagonist mediated abrogation of GPR84 signalling.
For the assay, frozen aliquots of CHO-K1 cells expressing hGPR84 (prepared by acCELLerate, Hamburg, Germany) were thawed and a cell suspension (1.67E+06 cells/mL) in assay media (Ham's F12 Nutrient Mix, Thermo Fisher Scientific, Waltham, USA; 5% fetal calf serum, Biomol, Hamburg, Germany) containing cAMP-d2 (dilution 1:20, supplied with the kit #62AM5PEJ, Cisbio, Condolet, France) was prepared. After recovery of cells for 20 minutes at 37° C., 3 μL/well cell suspension including cAMP-d2 were added to a pre-dispensed assay plate (Greiner Bio-One, Kremsmuenster, Austria) containing 50 nl/well test compound in 100% DMSO or 100% DMSO as control. This was followed by a 30 minutes incubation step at room temperature. […] The reaction was stopped by addition of 3 μL/well lysis buffer containing cAMP Eu-Cryptate antibody (dilution 1:20) (both supplied with the kit #62AM5PEJ, Cisbio, Condolet, France). To enable complete lysis, plates were incubated for 60 minutes at room temperature before measurement in an HTRF reader, e.g. a PHERAstar (BMG Labtech, Ortenberg, Germany).
From the fluorescence emissions at 665 nm (FRET) and at 620 nm (background signal of Eu-cryptate) the ratio (emission at 665 nm divided by emission at 620 nm×10000) was calculated and the data were normalized (reaction without test compound, only 100% DMSO=0% inhibition; all other assay components except agonist=100% inhibition). For dose response testing on the same microtiter plate, compounds were tested at 11 different concentrations in the range of 20 μM to 0.07 nM (20 μM, 5.7 μM, 1.6 μM, 0.47 μM, 0.13 μM, 38 nM, 11 nM, 3.1 nM, 0.89 nM, 0.25 and 0.07 nM; dilution series prepared before the assay at the level of the 100-fold conc. stock solutions by serial 1:3.5 dilutions in 100% DMSO) in duplicate values for each concentration. IC50 values were calculated by 4-parameter fitting using a commercial software package (Genedata Screener, Basel, Switzerland).
Examples were tested in selected biological assays one or more times. […]

T1 sequence (Q9NQS5 whole entry): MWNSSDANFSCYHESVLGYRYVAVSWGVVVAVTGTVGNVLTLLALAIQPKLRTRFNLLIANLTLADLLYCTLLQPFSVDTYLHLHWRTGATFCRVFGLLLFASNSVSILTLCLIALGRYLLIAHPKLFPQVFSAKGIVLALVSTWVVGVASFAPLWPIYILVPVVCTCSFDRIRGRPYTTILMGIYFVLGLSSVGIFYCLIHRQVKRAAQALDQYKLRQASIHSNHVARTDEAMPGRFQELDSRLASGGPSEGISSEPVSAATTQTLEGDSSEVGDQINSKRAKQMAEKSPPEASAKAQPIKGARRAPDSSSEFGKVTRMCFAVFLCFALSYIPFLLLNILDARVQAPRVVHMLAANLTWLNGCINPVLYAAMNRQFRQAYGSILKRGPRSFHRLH

**Q.** With `O=C(NCCc1cnccn1)c1oc2c(c1C(F)(F)F)-c1nn(C[C@H]3COCCO3)cc1CC2` [Example 240, 2-{[(2S)-1,4-dioxan-2-yl]methyl}-N-[2-(pyrazin-2-yl)ethyl]-8-(trifluoromethyl)-4,5-dihydro-2H-furo[2,3-g]indazole-7-carboxamide] as the compound, how does the IC50 read?
**A.** 2810 nM

**Q.** `Cc1c(C(=O)NC[C@@H]2COCCO2)oc2c1-c1nn(CC3CC3)cc1C1(CC1)C2` [Example 131, 2′-(cyclopropylmethyl)-N-[(2R)-1,4-dioxan-2-ylmethyl]-8′-methyl-2′,5′-dihydrospiro[cyclopropane-1,4′-furo[2,3-g]indazole]-7′-carboxamide] was tested. Which IC50 did it give?
**A.** 35 nM

**Q.** How did the IC50 turn out when `Cc1ncccc1Cn1cc2c(n1)-c1c(oc(C(=O)NC[C@@H]3CCCO3)c1C)CC2` [Example 73, 8-methyl-2-[(2-methylpyridin-3-yl)methyl]-N-[(2S)-tetrahydrofuran-2-ylmethyl]-4,5-dihydro-2H-furo[2,3-g]indazole-7-carboxamide] was run?
**A.** 140 nM

**Q.** With `Cc1c(C(=O)NC[C@@H]2CCCO2)oc2c1-c1nn(CCN3CCN(C(=O)OC(C)(C)C)CC3)cc1CC2` [Example 141, tert-butyl 4-[2-(8-methyl-7-{[(2S)-tetrahydrofuran-2-ylmethyl]carbamoyl}-4,5-dihydro-2H-furo[2,3-g]indazol-2-yl)ethyl]piperazine-1-carboxylate] as the compound, how does the IC50 read?
**A.** 700 nM

**Q.** With `O=C(NC[C@@H]1CCCO1)c1oc2c(c1C(F)(F)F)-c1nn(C[C@H]3COCCO3)cc1C1(CC1)C2` [Example 168, 2′-[(2S)-1,4-dioxan-2-ylmethyl]-N-[(2S)-tetrahydrofuran-2-ylmethyl]-8′-(trifluoromethyl)-2′,5′-dihydrospiro[cyclopropane-1,4′-furo[2,3-g]indazole]-7′-carboxamide] as the compound, how does the IC50 read?
**A.** 10 nM

**Q.** Which IC50 does the source give for `Cc1c(C(=O)NC[C@@H]2CCCO2)oc2c1-c1nn(CC3CC3)cc1CC2` [Example 48, 2-(cyclopropylmethyl)-8-methyl-N-[(2S)-tetrahydrofuran-2-ylmethyl]-4,5-dihydro-2H-furo[2,3-g]indazole-7-carboxamide] here?
**A.** 97 nM

**Q.** With `Cc1c(C(=O)NC[C@H]2COCCO2)oc2c1-c1nn(CC3CC3)cc1C1(CC1)C2` [Example 130, 2′-(cyclopropylmethyl)-N-[(2S)-1,4-dioxan-2-ylmethyl]-8′-methyl-2′,5′-dihydrospiro[cyclopropane-1,4′-furo[2,3-g]indazole]-7′-carboxamide] as the compound, how does the IC50 read?
**A.** 1290 nM

**Q.** `Cc1c(C(=O)NCC2CN(C)CCO2)oc2c1-c1nn(Cc3ccccn3)cc1CC2` (racemic) [Example 38, 8-methyl-N-{[(2R/S)-4-methylmorpholin-2-yl]methyl}-2-(pyridin-2-ylmethyl)-4,5-dihydro-2H-furo[2,3-g]indazole-7-carboxamide] was tested. Which IC50 did it give?
**A.** 700 nM

**Q.** With `Cc1ccc(Cn2cc3c(n2)-c2c(oc(C(=O)NC[C@@H]4COCCO4)c2C(F)(F)F)CC32CC2)nc1` [Example 215, N-{[(2R)-1,4-dioxan-2-yl]methyl}-2′-[(5-methylpyridin-2-yl)methyl]-8′-(trifluoromethyl)-2′,5′-dihydrospiro[cyclopropane-1,4′-furo[2,3-g]indazole]-7′-carboxamide] as the compound, how does the IC50 read?
**A.** 3 nM

**Q.** With `Cc1ccc(Cn2cc3c(n2)-c2c(oc(C(=O)NC[C@@H]4CCCO4)c2C)CC3)cn1` [Example 75, 8-methyl-2-[(6-methylpyridin-3-yl)methyl]-N-[(2S)-tetrahydrofuran-2-ylmethyl]-4,5-dihydro-2H-furo[2,3-g]indazole-7-carboxamide] as the compound, how does the IC50 read?
**A.** 60 nM

**Q.** For `Cc1c(C(=O)NC[C@@H]2CCCO2)oc2c1-c1nn(Cc3ncc(F)cc3Cl)cc1CC2` [Example 58, 2-[(3-chloro-5-fluoropyridin-2-yl)methyl]-8-methyl-N-[(2S)-tetrahydrofuran-2-ylmethyl]-4,5-dihydro-2H-furo[2,3-g]indazole-7-carboxamide], which IC50 is on record?
**A.** 240 nM

**Q.** Which IC50 does the source give for `Cc1c(C(=O)NC[C@@H]2CCCO2)oc2c1-c1nn(CCN)cc1CC2` [Example 160, 2-(2-aminoethyl)-8-methyl-N-[(2S)-tetrahydrofuran-2-ylmethyl]-4,5-dihydro-2H-furo[2,3-g]indazole-7-carboxamide] here?
**A.** 2540 nM

**Q.** For `Cc1c(C(=O)NCc2ncon2)oc2c1-c1nn(Cc3ccccn3)cc1CC2` [Example 5], which IC50 is on record?
**A.** 1410 nM

**Q.** With `Cc1c(C(=O)NC[C@@H]2CCCO2)oc2c1-c1nn(C[C@@H]3CCCO3)cc1CC2` [Example 107, 8-methyl-N,2-bis[(2S)-tetrahydrofuran-2-ylmethyl]-4,5-dihydro-2H-furo[2,3-g]indazole-7-carboxamide] as the compound, how does the IC50 read?
**A.** 35 nM

**Q.** For `Cc1c(C(=O)NCC2CCC(=O)O2)oc2c1-c1nn(Cc3ccccn3)cc1CC2` (single isomer, unassigned) [Example 39-1], which IC50 is on record?
**A.** 670 nM

**Q.** With `Cc1ccc(Cn2cc3c(n2)-c2c(oc(C(=O)NC[C@@H]4COCCO4)c2C)CC3)c(C)n1` [Example 78, 2-[(2,6-dimethylpyridin-3-yl)methyl]-N-[(2R)-1,4-dioxan-2-ylmethyl]-8-methyl-4,5-dihydro-2H-furo[2,3-g]indazole-7-carboxamide] as the compound, how does the IC50 read?
**A.** 190 nM

**Q.** Which IC50 does the source give for `C[C@@H]1Cc2oc(C(=O)NCc3nccs3)c(C(F)(F)F)c2-c2nn(C[C@H]3COCCO3)cc21` (single isomer, unassigned) [Example 259, (4R or 4S)-2-{[(2S)-1,4-dioxan-2-yl]methyl}-4-methyl-N-[(1,3-thiazol-2-yl)methyl]-8-(trifluoromethyl)-4,5-dihydro-2H-furo[2,3-g]indazole-7-carboxamide] here?
**A.** 5 nM

**Q.** For `CCC(=O)C(=O)N1CCC(Cn2cc3c(n2)-c2c(oc(C(=O)NC[C@@H]4CCCO4)c2C(F)(F)F)C[C@H]3C)CC1` (single isomer, unassigned) [Example 297, (4R or 4S)-4-methyl-2-{[1-(2-oxobutanoyl)piperidin-4-yl]methyl}-N-{[(2S)-oxolan-2-yl]methyl}-8-(trifluoromethyl)-4,5-dihydro-2H-furo[2,3-g]indazole-7-carboxamide], which IC50 is on record?
**A.** 13 nM

**Q.** How did the IC50 turn out when `Cc1c(C(=O)NC[C@@H]2CCCO2)oc2c1-c1nn(CC3(C)COC3)cc1CC2` [Example 93, 8-methyl-2-[(3-methyloxetan-3-yl)methyl]-N-[(2S)-tetrahydrofuran-2-ylmethyl]-4,5-dihydro-2H-furo[2,3-g]indazole-7-carboxamide] was run?
**A.** 17 nM

**Q.** With `Cc1c(C(=O)NC[C@@H]2CCCO2)oc2c1-c1nn(C[C@H]3COCCO3)cc1C(C)C2` (mixture of isomers) [Example 249, (4±)-2-{[(2S)-1,4-dioxan-2-yl]methyl}-4,8-dimethyl-N-{[(2S)-oxolan-2-yllmethyl}-4,5-dihydro-2H-furo[2,3-g]indazole-7-carboxamide] as the compound, how does the IC50 read?
**A.** 122 nM

**Q.** Which IC50 does the source give for `O=C(NC[C@@H]1CCCO1)c1oc2c(c1C(F)(F)F)-c1nn(Cc3ccncc3)cc1C1(CC1)C2` [Example 217, 2′-(Pyridin-4-ylmethyl)-N-[(2S)-tetrahydrofuran-2-ylmethyl]-8′-(trifluormethyl)-2′,5′-dihydrospiro[cyclopropan-1,4′-furo[2,3-g]indazol]-7′-carboxamide] here?
**A.** 6 nM

**Q.** With `Cc1c(C(=O)NCC2COCC(C)(C)O2)oc2c1-c1nn(Cc3ccccn3)cc1CC2` (racemic) [Example 181] as the compound, how does the IC50 read?
**A.** 102 nM

**Q.** `Cc1c(C(=O)NC[C@H]2CCC3(COC3)O2)oc2c1-c1nn(C[C@H]3COCCO3)cc1C1(CC1)C2` (single isomer, unassigned) [Example 201-1] was tested. Which IC50 did it give?
**A.** 683 nM

**Q.** With `Cn1cnc(CNC(=O)c2oc3c(c2C(F)(F)F)-c2nn(C[C@H]4COCCO4)cc2CC3)c1` [Example 229, 2-[(2S)-1,4-Dioxan-2-ylmethyl]-N-[(1-methyl-1H-imidazol-4-yl)methyl]-8-(trifluormethyl)-4,5-dihydro-2H-furo[2,3-g]indazol-7-carboxamide] as the compound, how does the IC50 read?
**A.** 89 nM
